Where “and” joins values, the source holds several entries; their conditions need not be identical. Equal entries are not always repeated.
Experiments:
Assay type in all cases: cell-based
human ERα = target: T1, human ERα (Homo sapiens, UniProt P03372); assay: ERE-TK-luc reporter transactivation assay in CV-1 cells, full-length hERa
T1 construct: Human ERα and ERβ were examined as full-length proteins using an estrogen receptor responsive reporter construct; expressed in transfected cells; host or cells: CV-1
T1 sequence (P03372 1-595): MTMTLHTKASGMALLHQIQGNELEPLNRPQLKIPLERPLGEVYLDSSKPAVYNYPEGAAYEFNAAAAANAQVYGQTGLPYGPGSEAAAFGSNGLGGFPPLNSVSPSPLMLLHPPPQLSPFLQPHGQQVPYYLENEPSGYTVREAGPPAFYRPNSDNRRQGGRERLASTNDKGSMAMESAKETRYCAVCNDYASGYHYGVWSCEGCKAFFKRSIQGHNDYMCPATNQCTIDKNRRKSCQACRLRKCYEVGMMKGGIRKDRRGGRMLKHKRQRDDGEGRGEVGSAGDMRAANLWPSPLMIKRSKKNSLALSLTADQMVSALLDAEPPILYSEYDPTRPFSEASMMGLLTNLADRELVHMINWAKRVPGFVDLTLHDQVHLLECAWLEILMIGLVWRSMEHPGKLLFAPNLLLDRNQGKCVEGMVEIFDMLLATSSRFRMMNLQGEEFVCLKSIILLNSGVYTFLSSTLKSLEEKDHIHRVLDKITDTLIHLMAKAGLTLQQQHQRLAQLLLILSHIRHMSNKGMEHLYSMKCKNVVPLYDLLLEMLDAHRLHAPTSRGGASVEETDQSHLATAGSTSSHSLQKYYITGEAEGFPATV
Protocol: (§1) Human ERα and ERβ were examined as full-length proteins using an estrogen receptor responsive reporter construct.
(§2) Suitable reporter gene constructs are well known to skilled workers in the fields of biochemistry and molecular biology. […] Other vectors known in the art can be used in the methods of the present invention.
(§3) CV-1 cells for the activation assays were grown in Dulbecco's modified Eagle's medium supplemented with 10% resin charcoal-stripped fetal bovine serum, 50 U/ml penicillin G and 50 μg/ml streptomycin sulfate (DMEM-FBS) at 37° C. in 5% CO2. One day prior to transfection, cells were plated to 50-80% confluence using phenol red free DMEM-FBS.

[1] = target: T2, GAL-L-hERRb (human ERRβ ligand binding domain fused to GAL4 DNA binding domain) (Homo sapiens, UniProt O95718); assay: GAL4 reporter transactivation assay in CV-1 cells, GAL-L-hERRb; details: for Fold activation, GAL-L-hERRb + PGC-1a / Fold activation, GAL-L-hERRb / Fold activation, Receptor ERRβ: CV-1; for Fold activation, GAL-L-hERRb + PGC-1a: reporter 0.42:vector 0.00875:PGC-1a 0.035; for Fold activation, GAL-L-hERRb: reporter 0.42:vector 0.00875, no PGC-1a; for Fold activation, Receptor ERRβ: Table 1, reporter 0.42:receptor vector 0.035:PGC-1a 0.035
T2 construct: expressed in transfected cells; host or cells: CV-1
T2 sequence (O95718 208-432 limits assumed): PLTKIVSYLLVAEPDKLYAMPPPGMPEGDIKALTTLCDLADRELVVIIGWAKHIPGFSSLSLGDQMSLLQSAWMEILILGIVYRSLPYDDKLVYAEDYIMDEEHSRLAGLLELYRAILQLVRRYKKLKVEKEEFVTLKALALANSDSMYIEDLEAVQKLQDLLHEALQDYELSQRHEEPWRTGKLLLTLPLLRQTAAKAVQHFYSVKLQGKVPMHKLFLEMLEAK

[2] = target: T3, GAL-mERRg (mouse ERRγ ligand binding domain fused to GAL4 DNA binding domain) (Mus musculus, UniProt P62509); assay: GAL4 reporter transactivation assay in CV-1 cells, GAL-mERRg; details: for Fold activation, GAL-mERRg + PGC-1a / Fold activation, GAL-mERRg / Fold activation, Receptor ERRγ: CV-1; for Fold activation, GAL-mERRg + PGC-1a: reporter 0.42:vector 0.00875:PGC-1a 0.035; for Fold activation, GAL-mERRg: reporter 0.42:vector 0.00875, no PGC-1a; for Fold activation, Receptor ERRγ: Table 1, reporter 0.42:receptor vector 0.035:PGC-1a 0.035
T3 construct: expressed in transfected cells; host or cells: CV-1
T3 sequence (P62509 233-457 limits assumed): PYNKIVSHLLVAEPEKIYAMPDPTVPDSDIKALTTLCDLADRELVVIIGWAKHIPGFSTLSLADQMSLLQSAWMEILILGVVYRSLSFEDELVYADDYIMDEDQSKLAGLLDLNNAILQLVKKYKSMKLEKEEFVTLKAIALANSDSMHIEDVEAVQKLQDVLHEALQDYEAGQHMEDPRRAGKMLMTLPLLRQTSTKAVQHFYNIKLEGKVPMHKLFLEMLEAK

human ERβ = target: T4, human ERβ (Homo sapiens, UniProt Q92731); assay: ERE-TK-luc reporter transactivation assay in CV-1 cells, full-length hERb; details: for Fold activation, Receptor ERRβ: Table 1 second block
T4 construct: Human ERα and ERβ were examined as full-length proteins using an estrogen receptor responsive reporter construct; expressed in transfected cells; host or cells: CV-1
T4 sequence (Q92731 whole entry): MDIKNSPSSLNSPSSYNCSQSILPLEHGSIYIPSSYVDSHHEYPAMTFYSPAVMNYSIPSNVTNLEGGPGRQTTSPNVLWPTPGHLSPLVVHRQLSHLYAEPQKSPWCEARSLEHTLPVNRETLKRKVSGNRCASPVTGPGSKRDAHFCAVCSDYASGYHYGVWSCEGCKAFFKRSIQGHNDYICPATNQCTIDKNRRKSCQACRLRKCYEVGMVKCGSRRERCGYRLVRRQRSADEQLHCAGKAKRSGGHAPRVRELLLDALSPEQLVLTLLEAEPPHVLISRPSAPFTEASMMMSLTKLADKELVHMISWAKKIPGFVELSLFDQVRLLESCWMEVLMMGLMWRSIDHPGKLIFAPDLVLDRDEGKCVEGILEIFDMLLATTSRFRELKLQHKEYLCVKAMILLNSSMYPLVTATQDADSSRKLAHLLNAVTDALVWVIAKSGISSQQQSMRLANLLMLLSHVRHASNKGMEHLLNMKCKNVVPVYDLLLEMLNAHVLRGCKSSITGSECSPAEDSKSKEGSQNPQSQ
Protocol: as §1, §2, §3

[3] = target: T5, GAL-hERRa (human ERRα ligand binding domain fused to GAL4 DNA binding domain) (Homo sapiens, UniProt P11474); assay: GAL4 reporter transactivation assay in CV-1 cells, GAL-hERRa; details: for Fold activation, GAL-hERRa + PGC-1a / Fold activation, GAL-hERRa / Fold activation, Receptor ERRα: CV-1; for Fold activation, GAL-hERRa + PGC-1a: reporter 0.42:vector 0.00875:PGC-1a 0.035; for Fold activation, GAL-hERRa: reporter 0.42:vector 0.00875, no PGC-1a; for Fold activation, Receptor ERRα: Table 1, reporter 0.42:receptor vector 0.035:PGC-1a 0.035
T5 construct: expressed in transfected cells; host or cells: CV-1
T5 sequence (P11474 193-421 limits assumed): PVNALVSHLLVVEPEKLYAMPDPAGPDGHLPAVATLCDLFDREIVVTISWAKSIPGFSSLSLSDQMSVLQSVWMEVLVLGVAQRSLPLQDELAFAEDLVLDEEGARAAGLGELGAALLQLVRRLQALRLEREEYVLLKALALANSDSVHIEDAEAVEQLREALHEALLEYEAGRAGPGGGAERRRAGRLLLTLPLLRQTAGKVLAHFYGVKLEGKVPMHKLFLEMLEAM

## CCN(CC)c1ccc(C=NNC(=O)c2ccc(O)cc2)cc1 [DY131, 4-Hydroxy-benzoic acid (4-diethylamino-benzylidene)-hydrazide]
Human ERα; CV-1 reporter assay
  Activity on ERα (activate or inhibit): failed to activate or inhibit
Human ERα; Table 7, CV-1, drug conc 30 μM
  Fold Activation, ERE-TK-luc, hERa: 0.53 fold
Human ERα; specificity for ERRs
  Activation of ERa: do not activate
[1]; 0.3 μM
  Fold activation, GAL-L-hERRb + PGC-1a: 1.27 fold
  Fold activation, GAL-L-hERRb: 0.84 fold
[1]; 1 μM
  Fold activation, GAL-L-hERRb + PGC-1a: 1.19 fold
  Fold activation, GAL-L-hERRb: 1.05 fold
[1]; 3 μM (first 3 μM column)
  Fold activation, GAL-L-hERRb + PGC-1a: 1.80 fold
  Fold activation, GAL-L-hERRb: 1.26 fold
[1]; 3 μM (second 3 μM column)
  Fold activation, GAL-L-hERRb + PGC-1a: 2.02 fold
  Fold activation, GAL-L-hERRb: 1.15 fold
[1]; 10 μM
  Fold activation, GAL-L-hERRb + PGC-1a: 2.45 fold
  Fold activation, GAL-L-hERRb: 2.14 fold
  Fold activation, Receptor ERRβ: 3.1 fold
[1]; 30 μM
  Fold activation, GAL-L-hERRb + PGC-1a: 2.52 fold
  Fold activation, GAL-L-hERRb: 2.46 fold
  Fold activation, Receptor ERRβ: 3.8 fold
[1]; 3 μM
  Fold activation, Receptor ERRβ: 1.9 fold
[1]; Table 1 conditions, concentrations of 10-30 μM
  Fold activation of ERRβ: 3-4 fold
[1]; in the presence of PGC-1a
  Activation of ERRβ: can activate
[2]; 0.3 μM
  Fold activation, GAL-mERRg + PGC-1a: 1.38 fold
  Fold activation, GAL-mERRg: 0.87 fold
[2]; 1 μM
  Fold activation, GAL-mERRg + PGC-1a: 1.59 fold
  Fold activation, GAL-mERRg: 0.92 fold
[2]; 3 μM (first 3 μM column)
  Fold activation, GAL-mERRg + PGC-1a: 2.65 fold
  Fold activation, GAL-mERRg: 1.26 fold
[2]; 3 μM (second 3 μM column)
  Fold activation, GAL-mERRg + PGC-1a: 2.29 fold
  Fold activation, GAL-mERRg: 1.70 fold
[2]; 10 μM
  Fold activation, GAL-mERRg + PGC-1a: 2.82 fold
  Fold activation, GAL-mERRg: 1.49 fold
  Fold activation, Receptor ERRγ: 5.9 fold
[2]; 30 μM
  Fold activation, GAL-mERRg + PGC-1a: 3.09 fold
  Fold activation, GAL-mERRg: 1.91 fold
  Fold activation, Receptor ERRγ: 6.6 fold
[2]; 3 μM
  Fold activation, Receptor ERRγ: 5 fold and 5.0 fold
[2]; in the presence of PGC-1a
  Activation of ERRγ: can activate
Human ERβ; CV-1 reporter assay
  Activity on ERβ (activate or inhibit): failed to activate or inhibit
Human ERβ; CV-1, 3 μM
  Fold activation, Receptor ERRβ: 1.1 fold
Human ERβ; CV-1, 10 μM
  Fold activation, Receptor ERRβ: 1.0 fold
Human ERβ; CV-1, 30 μM
  Fold activation, Receptor ERRβ: 1.2 fold
Human ERβ; Table 7, CV-1, drug conc 30 μM
  Fold Activation, ERE-TK-luc, hERb: 1.19 fold
Human ERβ; specificity for ERRs
  Activation of ERb: do not activate
[3]; 0.3 μM
  Fold activation, GAL-hERRa + PGC-1a: 1.69 fold
  Fold activation, GAL-hERRa: 1.10 fold
[3]; 1 μM
  Fold activation, GAL-hERRa + PGC-1a: 2.07 fold
  Fold activation, GAL-hERRa: 0.96 fold
[3]; 3 μM (first 3 μM column)
  Fold activation, GAL-hERRa + PGC-1a: 2.43 fold
  Fold activation, GAL-hERRa: 1.55 fold
[3]; 3 μM (second 3 μM column)
  Fold activation, GAL-hERRa + PGC-1a: 2.47 fold
  Fold activation, GAL-hERRa: 1.57 fold
[3]; 10 μM
  Fold activation, GAL-hERRa + PGC-1a: 3.75 fold
  Fold activation, GAL-hERRa: 1.44 fold
  Fold activation, Receptor ERRα: 1.7 fold
[3]; 30 μM
  Fold activation, GAL-hERRa + PGC-1a: 3.31 fold
  Fold activation, GAL-hERRa: 1.87 fold
  Fold activation, Receptor ERRα: 1.6 fold
[3]; 3 μM
  Fold activation, Receptor ERRα: 1.5 fold
[3]; Table 1 conditions (reporter:Gal-ERR:PGC-1a=0.4:0.035:0.035), any of the concentrations tested
  Activation of the reporter construct for ERRα: failed to activate
[3]; different assay conditions (reporter plasmid:Gal-ERR:PGC-1a=0.4:0.00875:0.035), Table 2
  Activation of the reporter construct for ERRα: activated
[3]; in the presence of PGC-1a
  Activation of ERRα: can activate
